Experiments:
[1] = biological target: BCRP (Homo sapiens (Human), UniProt Q9UNQ0); assay: BCRP MDCKII efflux assay (Assay 7); type: in vitro ADME; conditions: dog; efflux ratio Papp(B-A)/Papp(A-B), BCRP MDCKII cells; read-out: Assay 7 Pe Ratio
Method: Assay conditions included with and without the BCRP-specific inhibitor, KO143, at a concentration of 0.3 μM to ascertain the contribution of BCRP to the efflux value of the test compound.
Final organic concentration in the assay was 1%.

[2] = biological target: ErbB2 with Exon 20 YVMA insertion (HER2-YVMA) (Homo sapiens (Human), UniProt P04626, INS775YVMA); assay: Cellular Phosphorylation Assay, Assay 4 (constitutive ErbB2 phosphorylation, NIH 3T3 cells); type: cell-based
[3] = biological target: EGFR wild type (EGFR WT) (Homo sapiens (Human), UniProt P00533); assay: Cellular Phosphorylation Assay, Assay 5 (EGF-stimulated EGFR phosphorylation, NIH 3T3 cells); type: cell-based
[4] = biological target: ErbB2 WT (Homo sapiens (Human), UniProt P04626); assay: ErbB Enzyme Assay (HTRF KinEASE-TK), Assay 2; type: biochemical
[5] = biological target: EGFR (Homo sapiens (Human), UniProt P00533); assay: ErbB Enzyme Assay (HTRF KinEASE-TK), Assay 3; type: biochemical
[6] = EGF-stimulated EGFR WT phosphorylation
[7] = cellular ErbB2 YVMA phosphorylation
[8] = cellular EGFR WT phosphorylation, EGF-stimulated

Chain of BCRP (Q9UNQ0 whole entry): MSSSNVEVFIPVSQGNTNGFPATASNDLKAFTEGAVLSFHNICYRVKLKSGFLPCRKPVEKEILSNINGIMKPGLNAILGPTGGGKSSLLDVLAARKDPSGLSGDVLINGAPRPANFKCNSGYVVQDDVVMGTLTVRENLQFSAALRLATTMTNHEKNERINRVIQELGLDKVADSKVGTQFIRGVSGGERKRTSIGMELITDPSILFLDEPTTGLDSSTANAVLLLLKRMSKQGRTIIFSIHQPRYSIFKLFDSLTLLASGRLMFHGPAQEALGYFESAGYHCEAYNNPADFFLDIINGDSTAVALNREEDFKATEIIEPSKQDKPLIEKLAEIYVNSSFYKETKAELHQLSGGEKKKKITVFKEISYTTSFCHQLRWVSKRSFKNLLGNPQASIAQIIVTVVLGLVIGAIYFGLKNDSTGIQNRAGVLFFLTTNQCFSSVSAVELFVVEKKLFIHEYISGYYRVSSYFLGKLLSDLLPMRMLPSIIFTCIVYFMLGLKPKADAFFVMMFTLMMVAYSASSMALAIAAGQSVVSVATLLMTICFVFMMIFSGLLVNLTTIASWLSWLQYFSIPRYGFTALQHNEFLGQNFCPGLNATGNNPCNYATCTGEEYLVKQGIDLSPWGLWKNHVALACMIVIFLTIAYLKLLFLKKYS
Chain of ErbB2 with Exon 20 YVMA insertion (HER2-YVMA) (P04626 other isoform, or with tags, fused parts or gaps ins YVMA behind 775): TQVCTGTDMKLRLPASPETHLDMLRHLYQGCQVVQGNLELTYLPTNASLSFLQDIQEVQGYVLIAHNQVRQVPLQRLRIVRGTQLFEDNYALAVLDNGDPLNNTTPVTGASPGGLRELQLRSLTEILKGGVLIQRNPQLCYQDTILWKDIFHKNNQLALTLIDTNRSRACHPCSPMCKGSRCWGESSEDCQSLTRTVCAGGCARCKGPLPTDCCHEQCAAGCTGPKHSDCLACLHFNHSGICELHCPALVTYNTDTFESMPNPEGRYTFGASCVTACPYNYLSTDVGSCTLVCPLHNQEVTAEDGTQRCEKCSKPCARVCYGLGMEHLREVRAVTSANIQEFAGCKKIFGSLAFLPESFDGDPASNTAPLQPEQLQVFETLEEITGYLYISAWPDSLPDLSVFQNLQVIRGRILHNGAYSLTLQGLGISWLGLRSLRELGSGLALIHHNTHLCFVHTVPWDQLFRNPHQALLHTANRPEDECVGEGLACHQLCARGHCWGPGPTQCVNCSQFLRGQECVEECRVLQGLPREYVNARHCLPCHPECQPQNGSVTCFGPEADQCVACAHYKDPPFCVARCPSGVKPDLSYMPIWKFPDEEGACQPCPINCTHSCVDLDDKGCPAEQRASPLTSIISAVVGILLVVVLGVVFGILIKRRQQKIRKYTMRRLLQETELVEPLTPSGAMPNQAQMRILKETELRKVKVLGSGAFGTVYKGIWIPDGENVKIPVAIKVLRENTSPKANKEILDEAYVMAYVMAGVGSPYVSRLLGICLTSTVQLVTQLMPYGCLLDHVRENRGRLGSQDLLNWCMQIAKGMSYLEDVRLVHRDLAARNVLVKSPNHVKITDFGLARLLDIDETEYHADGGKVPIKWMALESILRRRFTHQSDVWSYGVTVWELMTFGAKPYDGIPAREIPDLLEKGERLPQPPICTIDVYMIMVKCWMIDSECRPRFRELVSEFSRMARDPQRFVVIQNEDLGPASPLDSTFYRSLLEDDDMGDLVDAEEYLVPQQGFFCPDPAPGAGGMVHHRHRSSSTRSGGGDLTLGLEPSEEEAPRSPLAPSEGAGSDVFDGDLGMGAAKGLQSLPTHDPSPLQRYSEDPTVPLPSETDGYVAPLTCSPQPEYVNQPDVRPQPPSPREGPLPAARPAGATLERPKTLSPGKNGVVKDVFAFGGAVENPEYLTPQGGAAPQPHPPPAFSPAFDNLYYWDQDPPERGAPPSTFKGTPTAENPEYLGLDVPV
Chain of EGFR (P00533 25-1210): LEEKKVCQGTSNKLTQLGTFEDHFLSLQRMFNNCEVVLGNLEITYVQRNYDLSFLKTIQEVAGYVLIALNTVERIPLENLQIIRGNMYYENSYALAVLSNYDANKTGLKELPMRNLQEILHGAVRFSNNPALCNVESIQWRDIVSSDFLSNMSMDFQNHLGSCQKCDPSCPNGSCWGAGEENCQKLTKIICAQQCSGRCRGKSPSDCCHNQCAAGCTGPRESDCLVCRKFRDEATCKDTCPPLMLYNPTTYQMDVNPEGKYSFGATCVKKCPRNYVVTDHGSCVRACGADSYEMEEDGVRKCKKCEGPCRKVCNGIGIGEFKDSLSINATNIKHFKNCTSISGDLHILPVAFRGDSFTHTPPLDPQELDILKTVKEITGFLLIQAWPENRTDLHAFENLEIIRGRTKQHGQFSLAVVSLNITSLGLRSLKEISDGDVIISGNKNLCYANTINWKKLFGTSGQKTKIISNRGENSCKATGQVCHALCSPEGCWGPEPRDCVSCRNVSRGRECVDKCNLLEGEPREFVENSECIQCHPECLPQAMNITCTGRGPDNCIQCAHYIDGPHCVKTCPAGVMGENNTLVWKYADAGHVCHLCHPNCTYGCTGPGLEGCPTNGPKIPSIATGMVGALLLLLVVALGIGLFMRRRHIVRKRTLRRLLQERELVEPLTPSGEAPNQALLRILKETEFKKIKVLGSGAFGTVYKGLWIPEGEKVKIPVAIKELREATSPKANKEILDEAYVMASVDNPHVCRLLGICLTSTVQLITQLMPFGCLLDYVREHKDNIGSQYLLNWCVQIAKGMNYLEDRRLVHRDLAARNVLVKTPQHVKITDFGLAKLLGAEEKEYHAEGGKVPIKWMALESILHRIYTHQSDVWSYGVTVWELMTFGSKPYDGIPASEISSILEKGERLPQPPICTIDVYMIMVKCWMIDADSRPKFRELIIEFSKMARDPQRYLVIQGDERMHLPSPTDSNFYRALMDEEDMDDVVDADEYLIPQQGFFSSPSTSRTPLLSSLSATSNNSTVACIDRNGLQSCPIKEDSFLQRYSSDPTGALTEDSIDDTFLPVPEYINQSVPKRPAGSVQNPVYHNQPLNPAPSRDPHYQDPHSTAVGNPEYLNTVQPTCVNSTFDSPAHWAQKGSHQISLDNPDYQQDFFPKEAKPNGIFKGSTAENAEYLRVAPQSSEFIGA
Chain of EGFR wild type (EGFR WT) (P00533 25-1210): as above

Row | SMILES | efflux ratio at 2 h, 1 µM [1] | IC50 ([2]; ErbB2 YVMA phosphorylation) [nM] | IC50 [3, 6] [nM] | IC50 ([4]; ErbB2 WT enzyme) [nM] | IC50 ([5]; EGFR enzyme) [nM] | IC50 [2, 7] [nM] | IC50 [3, 8] [nM] | IC50 ([4]; ErbB2 WT enzyme assay) [nM] | IC50 ([5]; EGFR enzyme assay) [nM]
1 | C=CC(=O)N1CCN(c2ccc3ncnc(Nc4ccc(Oc5ccc6c(c5)ncn6C)c(C)c4F)c3n2)CC1(C)C [Example 75, 1-(4-(4-((2-fluoro-3-methyl-4-((1-methyl-1H-benzo[d]imidazol-5-yl)oxy)phenyl)amino)pyrido[3,2-d]pyrimidin-6-yl)-2,2-dimethylpiperazin-1-yl)prop-2-en-1-one] | 3.8 | 13.7 | ≥ 5000 | 65.2 | ≥ 10000 |  |  |  | 
2 | C=CC(=O)N1C[C@H]2C[C@@H]1CN(c1ccc3ncnc(Nc4cc(Cl)c(Oc5cnc6c(c5)ncn6C)cc4F)c3n1)C2 [Example 294] | 7.2 |  |  |  |  | 22.2 | ≥ 5000 | 1170 | ≥ 10000
3 | C=CC(=O)N1C[C@@H]2CC[C@H]1CN(c1ccc3ncnc(Nc4ccc(Oc5ccn6ncnc6c5)c(C)c4F)c3n1)C2 (racemic) [Example 327] | 5.4 |  |  |  |  | 9.3 | 3500 | 12.8 | 1160
4 | C=CC(=O)N1CCN(c2ccc3ncnc(Nc4ccc(Oc5ccn6ncnc6c5)c(Cl)c4)c3n2)CC1(C)C [Example 74, 1-(4-(4-((4-([1,2,4]triazolo[1,5-a]pyridin-7-yloxy)-3-chlorophenyl)amino)pyrido[3,2-d]pyrimidin-6-yl)-2,2-dimethylpiperazin-1-yl)prop-2-en-1-one] | 6.4 | 5.7 | 298 | 9.2 | 1710 |  |  |  | 
5 | C=CC(=O)N1C[C@@H]2CN(c3ccc4ncnc(Nc5ccc(Oc6ccc7c(c6)ncn7C)c(C)c5F)c4n3)C[C@@H]21 [Example 323] | 6.7 |  |  |  |  | 23.8 | ≥ 5000 | 36.4 | ≥ 10000
6 | C=CC(=O)N1CC(c2ccc3ncnc(Nc4cc(C)c(Oc5ccc6c(c5)ncn6C)cc4F)c3n2)CCC12CC2 (centres unmarked) [Example 196, 1-(6-(4-((2-fluoro-5-methyl-4-((1-methyl-1H-benzo[d]imidazol-5-yl)oxy)phenyl)amino)pyrido[3,2-d]pyrimidin-6-yl)-4-azaspiro[2.5]octan-4-yl)prop-2-en-1-one] | 2.5 | 33.8 | 2010 | 42.9 | 1160 |  |  |  | 
7 | C=CC(=O)N1CCN(c2ccc3ncnc(Nc4cc(C)c(Oc5ccc6c(c5)ncn6C)cc4F)c3n2)CC12CC2 [Example 340] | 8.9 |  |  |  |  | 19.6 | 2020 | 19.5 | 881
8 | C=CC(=O)N1CCN(c2ccc3ncnc(Nc4ccc(Oc5ccc6c(c5)ncn6C)c(Cl)c4)c3n2)CC1 [Example 72, 1-(4-(4-((3-chloro-4-((1-methyl-1H-benzo[d]imidazol-5-yl)oxy)phenyl)amino)pyrido[3,2-d]pyrimidin-6-yl)piperazin-1-yl)prop-2-en-1-one] | 15.4 | 4.7 | 511 | 8.7 | 880 |  |  |  | 
9 | C=CC(=O)N1CCN(c2ccc3ncnc(Nc4ccc(Oc5ccc6c(c5)ncn6C)c(C)c4)c3n2)CC1 [Example 105, 1-(4-(4-((3-methyl-4-((1-methyl-1H-benzo[d]imidazol-5-yl)oxy)phenyl)amino)pyrido[3,2-d]pyrimidin-6-yl)piperazin-1-yl)prop-2-en-1-one] | 31.6 | 5 | 1350 | 11.9 | 680 |  |  |  | 
10 | C=CC(=O)N1C[C@H]2C[C@@H]1CN2c1ccc2ncnc(Nc3ccc(Oc4ccn5ncnc5c4)c(C)c3F)c2n1 [Example 94, 1-((1R,4R)-5-(4-((4-([1,2,4]triazolo[1,5-a]pyridin-7-yloxy)-2-fluoro-3-methylphenyl)amino)pyrido[3,2-d]pyrimidin-6-yl)-2,5-diazabicyclo[2.2.1]heptan-2-yl)prop-2-en-1-one] | 6.8 | 30.6 | ≥ 5000 | 170 | ≥ 10000 |  |  |  | 
11 | C=CC(=O)N1C2CC1CN(c1ccc3ncnc(Nc4ccc(Oc5ccc6c(c5)ncn6C)c(Cl)c4F)c3n1)C2 [Example 325] | 10.3 |  |  |  |  | 11.6 | 556 | 21.3 | 255
12 | C=CC(=O)N1CC2CCC(C1)N2c1ccc2ncnc(Nc3cc(Cl)c(Oc4ccn5ncnc5c4)cc3F)c2n1 [Example 441] | 7.3 |  |  |  |  | 17.8 | 770 | 31.1 | 682

The remaining lines, values ahead:

Row | efflux ratio at 2 h, 1 µM [1] | IC50 ([2]; ErbB2 YVMA phosphorylation) [nM] | IC50 [3, 6] [nM] | IC50 ([4]; ErbB2 WT enzyme) [nM] | IC50 ([5]; EGFR enzyme) [nM] | IC50 [2, 7] [nM] | IC50 [3, 8] [nM] | IC50 ([4]; ErbB2 WT enzyme assay) [nM] | IC50 ([5]; EGFR enzyme assay) [nM] | SMILES
13 | 15.8 | 8.4 | ≥ 5000 | 42 | 7270 |  |  |  |  | C=CC(=O)N1CCC(c2ccc3ncnc(Nc4ccc(Oc5ccc6c(c5)ncn6C)c(C)c4)c3n2)C1 (racemic) [Example 120, rac-(R)-1-(3-(4-((3-methyl-4-((1-methyl-1H-benzo[d]imidazol-5-yl)oxy)phenyl)amino)pyrido[3,2-d]pyrimidin-6-yl)pyrrolidin-1-yl)prop-2-en-1-one]
14 | 10.1 | 6 | ≥ 5000 | 18.5 | 7790 |  |  |  |  | C=CC(=O)N1[C@H](C)CN(c2ccc3ncnc(Nc4ccc(Oc5ccc6c(c5)ncn6C)c(C)c4)c3n2)C[C@@H]1C [Example 106, 1-((2S,6R)-2,6-dimethyl-4-(4-((3-methyl-4-((1-methyl-1H-benzo[d]imidazol-5-yl)oxy)phenyl)amino)pyrido[3,2-d]pyrimidin-6-yl)piperazin-1-yl)prop-2-en-1-one]
15 | 16 |  |  |  |  | 20.4 | ≥ 5000 | 38 | 1510 | C=CC(=O)N1C[C@H]2C[C@@H]1[C@H](c1ccc3ncnc(Nc4ccc(Oc5cnc6c(c5)ncn6C)c(C)c4)c3n1)C2 [Example 407]
16 | 17.2 |  |  |  |  | 49.5 | ≥ 5000 | 474 | ≥ 10000 | C=CC(=O)N1C[C@H]2C[C@@H]1CN(c1ccc3ncnc(Nc4cc(C)c(Oc5cnc6c(c5)ncn6C)cc4F)c3n1)C2 [Example 353]
17 | 7.6 |  |  |  |  | 14.4 | 1230 | 12.9 | 2350 | C=CC(=O)N1CCN(c2ccc3ncnc(Nc4ccc(Oc5cc(F)c6c(c5)ncn6C)c(C)c4)c3n2)C[C@H]1CC [Example 282]
18 | 2.1 | 22.1 | ≥ 5000 | 132 | ≥ 10000 |  |  |  |  | C=CC(=O)N1C[C@H](c2ccc3ncnc(Nc4cc(C)c(Oc5ccc6c(c5)ncn6C)cc4F)c3n2)C[C@H]1C [Example 192, 1-((2R,4R)-4-(4-((2-fluoro-5-methyl-4-((1-methyl-1H-benzo[d]imidazol-5-yl)oxy)phenyl)amino)pyrido[3,2-d]pyrimidin-6-yl)-2-methylpyrrolidin-1-yl)prop-2-en-1-one]
19 | 3.4 |  |  |  |  | 20.5 | ≥ 5000 | 16.5 | 2660 | C=CC(=O)N1C[C@H]2C[C@@H]1[C@H](c1ccc3ncnc(Nc4cc(C)c(Oc5ccc6c(c5)ncn6C)cc4F)c3n1)C2 [Example 374]

Source: patent US12447153B2, “HER2 mutation inhibitors” (Array BioPharma Inc., priority 2021, dated 2025)
